Test results reported in patent publication US20230364032A1, “USE OF 2-HOBA TO TREAT ATHEROSCLEROSIS” (Vanderbilt University, priority 2020, published 2023).
“Also recorded” adds a separate entry of the source.

How the values were obtained:
MDA-HDL = assay: MDA adducts in isolated HDL by ELISA; type: in vivo, mouse; details: Ldlr−/− mice
Experimental: FIGS. 7A-7G show the effects of 2-HOBA on MDA-HDL adducts and HDL function. (7A) The levels or MDA adducts were measured by ELISA in HDL isolated from Ldlr mice treated as described in FIG. 1. Data are presented as mean±SEM (N=8 pet group), *** p<0.001, One-way ANOVA with Bonferroni's post hoc test. (7B) Western blots of apoAl and MDA-apoAl in HDL isolated from plasma by immunoprecipitation using primary anti-apoAl antibody. Ldlf mice were treated as described In FIG. 1 and apoAl and MDA-apoAl from Ldlr mice consuming a chow diet are included f0t comparison. (7C) Quantitation using lmageJ software of the mean density ratio (arbitrary units) of MDA-apoAl to apoAl detected by Western blotting (7B). (7D The HDL was isolated from the plasma of Ld/r-mice consuming a western diet for 16 weeks and treated with 2-HOBA or 4-HOBA or vehicle. Cholesterol enriched macrophages were incubated for 24 h with HDL (25 μg protein/ml). and the % reduction in cellular cholesterol content measured. Data presented as mean±SEM. N=7 per group, *p<0.05.**p<0.01, One-way ANOVA with Bonferroni's post hoc test (7E) The MDA adducts were measured by ELISA in HDL isolated from control or FH subjects before and after LDL apheresis. N=7 or 8, ***p<0.001, One-way ANOVA with Bonferroni's post hoc test. (7F) The MDA-Lysyl crosslink content in HDL from control or FH subjects (n=6 per group), p=0.02, Mann-Whitney test (7G) The capacity of HDL from control or FH subjects pre and post LDL apheresis (n=7 per group) to reduce the cholesterol content of apoE macrophages.
The study was approved by the Vanderbilt University Institutional Review Board (IRB), and all participants gave their written informed consent. The human blood samples from patients with severe FH, who were undergoing LDL apheresis, and healthy controls were obtained using an IRB approved protocol. […] After stopping the reaction, the O.D. was measured at 450 nm wavelength. MDA-ApoAI was detected in mouse plasma by immunoprecipitation of ApoAI and western blotting. […] Proteins were visualized and quantitated by Odyssey 3.0 Quantification software (LI-COR).

[1] = system: MDA- and IsoLG-lysyl adducts; assay: Aorta dilysyl-MDA crosslinks and IsoLG-lysyl adducts by LC/MS/MS; type: in vivo, mouse; details: Ldlr−/− mice
Experimental: Isolation and LC/MS measurement of isolevuglandin-lysyl-lactam (IsoLG-Lys) adducts from aorta of 2-HOBA and 4-HOBA treated Ldlr^−/− mice were performed using a Waters Xevo-TQ-Smicro triple quadrupole mass spectrometer as previously described^69.
Samples (around 1 mg of protein) were digested with proteases as previously described for lysyl-lactam adducts^70. Five nanograms of ^13C6-dilysyl-MDA crosslink standard were added to each cell sample and dilysyl-MDA crosslinks were purified as previously described^71. The dilysyl-MDA crosslink was quantified by isotopic dilution by LC-EST/MS/MS as previously described^71.

primary macrophages = assay: H2O2-induced apoptosis of macrophages (Annexin V); type: cell-based, mouse; details: 250 μM H2O2, 24 h, 500 μM compound; compared to vehicle or 4-HOBA
Experimental: (6A and 6B) Mouse aortic endothelial cells (6A) or primary macrophages (6B) were incubated for 24 h with 250 μM H2O2 alone or with either 4-HOBA or 2-HOBA (500 μM). Apoptotic cells were then detected by Annexin V staining and flow cytometry. (6C to 6H) The mRNA levels of IL-1β, IL-6, and TNF-α were analyzed by real time PCR in the peritoneal macrophages incubated for 24 h with either oxidized LDL (6C-6E) or 250 μM H2O2 (6F-6H) alone or with either 4-HOBA or 2-HOBA (500 μM). (6A to 6H) Data are presented as mean±SEM from three independent experiments, ***p<0.001, One-way ANOVA with Bonferroni's post hoc test.
Peritoneal macrophages were isolated from mice 72 hours post injection of 3% thioglycollate and maintained in DMEM plus 10% fetal bovine serum (FBS, Gibco) as previously described^30. Human aortic endothelial cells (HAECs) were obtained from Lonza and maintained in endothelial cell basal medium-2 plus 1% FBS and essential growth factors (Lonza).
Cell apoptosis was induced as indicated and detected by fluorescent labeled Annexin V staining and quantitated by either Flow Cytometry (BD 5 LSRII) or counting Annexin V positive cells in images captured under a fluorescent microscope. The apoptotic cells in atherosclerotic lesions were measured by TUNEL staining of cross-sections of atherosclerotic proximal aortas as previously described^30. […]

SMILES: NCc1ccccc1O [2-HOBA, 2-hydroxybenzylamine]
- MDA content in HDL (MDA-HDL): reduced
- reduction of MDA adduct content of isolated HDL (ELISA) (MDA-HDL; compared to 4-HOBA): 56%
- reduction of MDA adduct content of isolated HDL (ELISA) (MDA-HDL; compared to vehicle): 57%
- MDA and IsoLG adduct content of atherosclerotic lesions/aortas [1]: decreases; also recorded: markedly reduced
- decrease of whole aorta IsoLG-lysyl adduct content ([1]; compared to 4-HOBA treatment): 23%
- decrease of whole aorta MDA-lysyl adduct content ([1]; compared to 4-HOBA treatment): 59%
- number of apoptotic cells, macrophage cultures (primary macrophages): markedly decreased
